Earlier results in patent US5780426A, “Fivemer cyclic peptide inhibitors of diseases involving αv β3” (IXSYS, Incorporated, priority 1995, dated 1998).
Bridge positions count the residues as written; N and C are the ends. Ends that are not written are not given here.

How the values were obtained:
[1] = test system: αv β3 receptor; conditions: chicken embryo tumor model; Brooks et al., Cell 1994
[2] = molecular target: integrin αv β3 (Homo sapiens, UniProt P05106+P06756); conditions: Koivunen et al. 1995
Chain of integrin αv β3 (P06756 31-889 limits assumed): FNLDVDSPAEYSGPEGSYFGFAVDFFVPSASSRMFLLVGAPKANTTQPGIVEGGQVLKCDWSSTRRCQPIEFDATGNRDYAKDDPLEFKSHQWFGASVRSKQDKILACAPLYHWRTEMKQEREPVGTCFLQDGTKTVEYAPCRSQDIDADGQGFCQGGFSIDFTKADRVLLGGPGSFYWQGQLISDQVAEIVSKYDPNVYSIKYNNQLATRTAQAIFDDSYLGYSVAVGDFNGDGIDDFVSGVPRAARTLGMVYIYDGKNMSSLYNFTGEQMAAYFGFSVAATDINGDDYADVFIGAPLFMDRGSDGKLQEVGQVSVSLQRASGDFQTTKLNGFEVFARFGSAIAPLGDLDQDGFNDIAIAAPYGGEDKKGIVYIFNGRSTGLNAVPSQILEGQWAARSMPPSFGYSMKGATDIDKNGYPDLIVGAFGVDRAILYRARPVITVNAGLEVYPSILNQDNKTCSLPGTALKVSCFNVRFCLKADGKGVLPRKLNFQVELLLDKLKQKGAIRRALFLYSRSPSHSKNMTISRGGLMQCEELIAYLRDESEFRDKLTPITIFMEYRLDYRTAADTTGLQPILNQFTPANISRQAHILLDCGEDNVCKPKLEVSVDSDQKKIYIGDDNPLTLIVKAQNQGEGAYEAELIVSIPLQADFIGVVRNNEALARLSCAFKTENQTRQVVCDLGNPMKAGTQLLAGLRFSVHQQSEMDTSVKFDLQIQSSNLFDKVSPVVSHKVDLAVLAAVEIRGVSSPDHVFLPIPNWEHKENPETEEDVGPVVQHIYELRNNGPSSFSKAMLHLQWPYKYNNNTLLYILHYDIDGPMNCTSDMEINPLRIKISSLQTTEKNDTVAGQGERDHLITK
Chain of integrin αv β3 (P06756 891-1048 partner limits assumed): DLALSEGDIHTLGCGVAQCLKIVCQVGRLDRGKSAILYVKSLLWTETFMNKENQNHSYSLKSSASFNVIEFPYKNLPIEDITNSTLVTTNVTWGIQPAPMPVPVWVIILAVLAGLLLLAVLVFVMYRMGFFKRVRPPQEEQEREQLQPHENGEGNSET
Chain of integrin αv β3 (P05106 27-788): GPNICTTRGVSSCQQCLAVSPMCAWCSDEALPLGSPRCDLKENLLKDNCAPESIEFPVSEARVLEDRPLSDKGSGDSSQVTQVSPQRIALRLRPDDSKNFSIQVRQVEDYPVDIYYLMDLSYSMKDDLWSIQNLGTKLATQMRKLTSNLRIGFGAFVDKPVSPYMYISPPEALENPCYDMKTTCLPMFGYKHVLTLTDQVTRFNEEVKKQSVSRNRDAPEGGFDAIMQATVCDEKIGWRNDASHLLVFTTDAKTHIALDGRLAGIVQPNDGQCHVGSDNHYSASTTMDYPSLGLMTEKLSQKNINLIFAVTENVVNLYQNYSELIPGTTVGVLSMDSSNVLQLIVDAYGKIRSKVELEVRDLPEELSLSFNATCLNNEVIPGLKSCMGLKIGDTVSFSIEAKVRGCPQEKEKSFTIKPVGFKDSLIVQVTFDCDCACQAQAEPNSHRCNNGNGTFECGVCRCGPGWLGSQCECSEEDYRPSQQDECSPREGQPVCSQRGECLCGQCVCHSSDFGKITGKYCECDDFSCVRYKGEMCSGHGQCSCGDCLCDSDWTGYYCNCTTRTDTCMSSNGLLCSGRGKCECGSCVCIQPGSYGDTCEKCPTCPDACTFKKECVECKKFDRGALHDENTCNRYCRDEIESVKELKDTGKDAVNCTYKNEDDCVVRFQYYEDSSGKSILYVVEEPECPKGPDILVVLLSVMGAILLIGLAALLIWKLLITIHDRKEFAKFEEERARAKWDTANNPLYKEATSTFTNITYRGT

[3] = test system: osteoclasts; conditions: Horton et al. 1991
[4] = test system: angiogenesis; conditions: Nicosia and Bonanno 1991

Molecule: CC(C)[C@@H]1NC(=O)[C@@H](Cc2ccccc2)NC(=O)[C@H](CC(=O)O)NC(=O)CNC(=O)[C@H](CCCN=C(N)N)NC1=O [cyclo-RGDfv]
- inhibition of angiogenesis / neovascularization [1]: inhibit the neovascularization process

Molecule: ACPSRLDSPCG (disulfide 2-10 (inferred)) [RLD peptide synthesized from a random cyclic phage library (Koivunen et al.)]
- selectivity for the integrin αv β3 [2]: only partially selective
- activity relative to an RGD peptide (fold lower) ([2]; binding and cell adhesion assays): 100-1000 fold

Molecule: GRGDSP [Arg-Gly-Asp containing peptide]
- osteoclast function [3]: disruption of osteoclast function

Molecule: Gly-Arg-Gly-Asp-Ser (GRGDS)
- inhibition of angiogenesis in vitro [4]: inhibits angiogenesis in vitro
